# From ChEMBL document CHEMBL5727219, “Kinase inhibitors and method of treating cancer” (2019)
# Assay: Inhibition Assay: PLK3 inhibition was determined using the Z-Lyte assay kit from Invitrogen (cat #PV3802). The assay was performed using the recommended manufacturer's instructions with 100 μM ATP and 21 nM PLK3 (Invitrogen cat #PV3812). The % inhibition values were determined according to the manufacturer's directions and IC50 values were obtained using a non-linear 4 point logistic curve fit (XLfit4, IDBS).
row,IC50,Compound
1,in the range around 2000 nM,CCc1ccc2c(c1)[C@]1(C[C@H]1c1ccc3c(-c4cccc(CN5CCOCC5)c4)n[nH]c3c1)C(=O)N2
2,in the range around 2000 nM,COCCN1C(=O)[C@@]2(C[C@H]2c2ccc3c(/C=C/c4ccc(CN(C)C)cc4)n[nH]c3c2)c2ccccc21
3,in the range around 2000 nM,COc1ccc2c(c1)[C@]1(C[C@H]1c1ccc3c(-c4cccc(N5CCNCC5)c4)n[nH]c3c1)C(=O)N2 (relative stereo)
4,in the range around 2000 nM,COc1ccc2c(c1)[C@]1(C[C@H]1c1ccc3c(-c4cccc(CN5CCCCC5)c4)n[nH]c3c1)C(=O)N2 (relative stereo)
5,in the range around 2000 nM,COc1ccc2c(c1)[C@]1(C[C@H]1c1ccc3c(-c4cccc(CN5CCOCC5)c4)n[nH]c3c1)C(=O)N2 (relative stereo)
6,in the range around 2000 nM,COc1ccc2c(c1)[C@]1(C[C@H]1c1ccc3c(-c4ccc(CO)cc4)n[nH]c3c1)C(=O)N2 (relative stereo)
